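1) Cells in 96-well plates. 2) Compound, 48 h, 5 concentrations. 3) Linear interpolation between surrounding doses. 4) Unreached endpoint = highest concentration. The concentration for 50% growth inhibition is given as GI50.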 Activity calls are given as the source filed them. No stated cut-off is given here; in the data, active = GI50 up to about 1.1 µM and inactive = higher.
Tests used:
Test in all cases: growth of human tumour cells (NCI), 48 h
[1] = tested on: HOP-62
[2] = tested on: DU-145
[3] = tested on: RXF 393
[4] = tested on: OVCAR-8
[5] = tested on: OVCAR-3
[6] = tested on: Malme-3M
[7] = tested on: HCT-15
[8] = tested on: SK-MEL-5
[9] = tested on: NCI-H522
[10] = tested on: OVCAR-4
[11] = tested on: OVCAR-5
[12] = tested on: HL-60
[13] = tested on: A498
[14] = tested on: HCC 2998
[15] = tested on: SN12C
[16] = tested on: 786-0
[17] = tested on: RPMI-8226
[18] = tested on: MDA-MB-435
[19] = tested on: U-251
[20] = tested on: SW-620
[21] = tested on: SR
[22] = tested on: UACC-62
[23] = tested on: COLO 205
[24] = tested on: NCI/ADR-RES
[25] = tested on: EKVX
[26] = tested on: PC-3
[27] = tested on: Hs-578T
[28] = tested on: MOLT-4
[29] = tested on: SF-539
[30] = tested on: IGROV-1
[31] = tested on: MDA-MB-231
[32] = tested on: SK-MEL-28
[33] = tested on: MCF7
[34] = tested on: NCI-H23
[35] = tested on: KM12
[36] = tested on: LOX IMVI
[37] = tested on: HT-29
[38] = tested on: SK-MEL-2
[39] = tested on: TK-10
[40] = tested on: MDA-N
[41] = tested on: BT-549
[42] = tested on: SNB-75
[43] = tested on: M14
[44] = tested on: A549
[45] = tested on: CAKI-1
[46] = tested on: NCI-H460
[47] = tested on: CCRF-CEM
[48] = tested on: SK-OV-3
[49] = tested on: ACHN
[50] = tested on: NCI-H226
[51] = tested on: T47D
[52] = tested on: UO-31
[53] = tested on: HCT-116
[54] = tested on: HOP-92
[55] = tested on: SNB-19
[56] = tested on: SF-295
[57] = tested on: K562
[58] = tested on: SF-268
[59] = tested on: UACC-257

Measured: GI50

CC1(C)Oc2ccc(NC(=O)CCC(N)C(=O)O)cc2O1 (stereo not given)
> 100 µM: [7]
inactive: [1] > 100 µM | [2] > 100 µM | [3] > 100 µM | [4] > 100 µM | [5] > 100 µM | [6] > 100 µM | [8] > 100 µM | [9] > 100 µM | [10] > 100 µM | [11] > 100 µM | [12] > 100 µM | [13] > 100 µM | [14] > 100 µM | [15] > 100 µM | [16] > 100 µM | [17] > 100 µM | [18] > 100 µM | [19] > 100 µM | [20] > 100 µM | [21] > 100 µM | [22] > 100 µM | [23] > 100 µM | [24] > 100 µM | [25] > 100 µM | [26] > 100 µM | [27] > 100 µM | [28] > 100 µM | [29] > 100 µM | [30] > 100 µM | [31] > 100 µM | [32] > 100 µM | [33] > 100 µM | [34] > 100 µM | [35] > 100 µM | [36] > 100 µM | [37] > 100 µM | [38] > 100 µM | [39] > 100 µM | [40] > 100 µM | [41] > 100 µM | [42] > 100 µM | [43] > 100 µM | [44] > 100 µM | [45] > 100 µM | [46] > 100 µM | [47] > 100 µM | [48] > 100 µM | [49] > 100 µM | [50] > 100 µM | [51] > 100 µM | [52] > 100 µM | [53] > 100 µM | [54] > 100 µM | [55] > 100 µM | [56] > 100 µM | [57] > 100 µM

CC(/C=N/N(C)C1=NCCCCN1)=N/N(C)C1=NCCCCN1
inactive: [1] > 100 µM | [2] > 100 µM | [3] > 100 µM | [4] > 100 µM | [5] > 100 µM | [6] > 100 µM | [8] > 100 µM | [9] > 100 µM | [10] > 100 µM | [11] > 100 µM | [12] > 100 µM | [13] 97.9 µM | [14] > 100 µM | [15] > 100 µM | [16] > 100 µM | [17] > 100 µM | [18] > 100 µM | [19] > 100 µM | [58] > 100 µM | [20] > 100 µM | [21] > 100 µM | [22] > 100 µM | [23] > 100 µM | [24] > 100 µM | [25] > 100 µM | [26] > 100 µM | [27] > 100 µM | [28] > 100 µM | [29] > 100 µM | [30] > 100 µM | [31] > 100 µM | [32] > 100 µM | [33] > 100 µM | [34] > 100 µM | [35] > 100 µM | [36] > 100 µM | [37] > 100 µM | [38] > 100 µM | [59] > 100 µM | [39] > 100 µM | [40] > 100 µM | [41] > 100 µM | [42] > 100 µM | [44] > 100 µM | [45] > 100 µM | [46] > 100 µM | [47] > 100 µM | [48] > 100 µM | [49] > 100 µM | [50] > 100 µM | [51] > 100 µM | [52] > 100 µM | [53] > 100 µM | [54] > 100 µM | [55] > 100 µM | [56] > 100 µM | [57] > 100 µM
> 100 µM: [7]
